Results taken from paper PMC12458359 (bioRxiv, 2025).
Read-outs that look alike come from different tables or passages of the source. One block for each molecule: values may come before it.

Key:
Experiment in all cases: radiometric enzymatic assay
Assay type in all cases: biochemical
[1] = biological target: T1, CK1γ2 (Homo sapiens, UniProt P78368); conditions: read-out: Enzymatic IC50 CK1γ2
[2] = biological target: T2, CK1γ1 (Homo sapiens, UniProt Q9HCP0); conditions: read-out: Enzymatic IC50 CK1γ1
[3] = biological target: T1, CK1γ2; conditions: read-out: Enzymatic IC50 CK1γ2; remark: listed apart in the source
[4] = biological target: T2, CK1γ1; conditions: read-out: Enzymatic IC50 CK1γ1; remark: listed apart in the source
[5] = biological target: T2, CK1γ1; conditions: read-out: Enzymatic IC50 CK1γ1; remark: listed apart in the source
[6] = biological target: T1, CK1γ2; conditions: read-out: Enzymatic IC50 CK1γ2; remark: listed apart in the source
[7] = biological target: T1, CK1γ2; conditions: read-out: Enzymatic IC50 CK1γ2; remark: listed apart in the source
[8] = biological target: T2, CK1γ1; conditions: read-out: NB IC50 CK1γ3

T2 sequence (Q9HCP0 whole entry): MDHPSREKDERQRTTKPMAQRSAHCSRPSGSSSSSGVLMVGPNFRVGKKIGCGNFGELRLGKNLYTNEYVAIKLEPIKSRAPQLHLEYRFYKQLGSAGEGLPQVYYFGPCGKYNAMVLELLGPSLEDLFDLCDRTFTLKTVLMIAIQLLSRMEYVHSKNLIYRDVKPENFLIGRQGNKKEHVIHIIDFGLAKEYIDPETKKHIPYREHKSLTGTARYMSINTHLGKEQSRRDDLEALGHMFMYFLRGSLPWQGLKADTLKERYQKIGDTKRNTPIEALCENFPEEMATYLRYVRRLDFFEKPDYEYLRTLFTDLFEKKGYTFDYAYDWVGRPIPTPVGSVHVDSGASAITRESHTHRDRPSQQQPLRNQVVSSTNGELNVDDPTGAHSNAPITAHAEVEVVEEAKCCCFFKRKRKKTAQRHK
T1 sequence (P78368 whole entry): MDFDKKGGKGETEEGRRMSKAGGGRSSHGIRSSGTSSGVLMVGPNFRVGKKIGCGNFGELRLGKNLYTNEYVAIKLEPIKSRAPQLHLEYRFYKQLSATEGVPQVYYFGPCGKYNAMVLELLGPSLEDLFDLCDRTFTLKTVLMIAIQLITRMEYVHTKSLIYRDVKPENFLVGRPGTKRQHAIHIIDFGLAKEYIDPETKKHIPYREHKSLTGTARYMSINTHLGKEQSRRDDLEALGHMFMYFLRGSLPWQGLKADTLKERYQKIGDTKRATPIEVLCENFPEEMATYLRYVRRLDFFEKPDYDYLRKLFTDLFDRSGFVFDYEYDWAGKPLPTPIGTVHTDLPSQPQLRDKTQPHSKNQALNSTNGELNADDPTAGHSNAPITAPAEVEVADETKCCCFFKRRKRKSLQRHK

- IC50 [1]: 7 nM
- IC50 [2]: 28 nM
Compound: N#Cc1ccc2nc(Nc3ccc(N4CCOCC4)c(Cl)c3)[nH]c2c1 [compound 14, 2-((3-chloro-4-morpholinophenyl)amino)-1H-benzo[d]imidazole-6-carbonitrile]

- IC50 [3]: 10 nM
- IC50 [4]: 40 nM
Compound: N#Cc1ccc2nc(Nc3ccc(N4CCOCC4)c(Br)c3)[nH]c2c1 [compound 15, 2-((3-bromo-4-morpholinophenyl)amino)-1H-benzo[d]imidazole-6-carbonitrile]

- IC50 [5]: 36 nM
- IC50 [6]: 14 nM
Compound: CN1CCN(c2ccc(Nc3nc4ccc(C#N)cc4[nH]3)cc2Cl)CC1 [compound 21, 2-((3-chloro-4-(4-methylpiperazin-1-yl)phenyl)amino)-1H-benzo[d]imidazole-6-carbonitrile]

- IC50 [7]: 9 nM
- IC50 [8]: 30 nM
Compound: N#Cc1ccc2[nH]c(Nc3ccc(N4CCCCC4)c(Cl)c3)nc2c1 [compound 20, 2-((3-chloro-4-(piperidin-1-yl)phenyl)amino)-1H-benzo[d]imidazole-5-carbonitrile]
